This is an account of results in paper PMC2939913 (Journal of medicinal chemistry, 2010).

Several values for one entry are separate records, joined by “and”; a condition that tells them apart may be missing. Equal values may be shown once.

Series [1] concerns P. falciparum D6 (CQS). In words: Inhibition of P. falciparum growth. The format is cell-based. The following applies: Plasmodium falciparum, D6, 72 h, read-out: IC50 (nM) for P. falciparum D6.
Series [2] has as its system P. falciparum Dd2 (CQR). In words: Inhibition of P. falciparum growth. The note with it: Plasmodium falciparum, DD2, 72 h, read-out: IC50 (nM) for P. falciparum Dd2. The format is cell-based.
In series [3] the test system is CQS D6-infected RBCs (P. falciparum). In words: Accumulation experiment in parasitized red blood cells, D6. It counts as cell-based. The note with it: for Uptake: by 6 × 10^7 PRBCs after 1 hour of incubation, initial medium ∼ 5 µM, ±5%.
The test system of series [4] is CQR Dd2-infected RBCs (P. falciparum). In words: Accumulation experiment in parasitized red blood cells, Dd2. It counts as cell-based. The following applies: for Uptake: by 6 × 10^7 PRBCs after 1 hour of incubation, initial medium ∼ 5 µM, ±5%.
Series [5] can be described thus: General cytotoxicity, mitogen-stimulated murine spleenic lymphocytes. The following applies: mouse, mitogen-stimulated murine splenic lymphocytes. It counts as cell-based.
In series [6] the test system is β-hematin. Nature of the series: β-hematin inhibition. It counts as biochemical. The following applies: for IC50: read-out: β-hematin inhibition, 40 µM heme, acetate pH 4.8, Tween20, 24 hours at 37°C.
In series [7] the test system is hemozoin production in D6 P. falciparum. In words: Hemozoin inhibition in cell culture. It counts as cell-based. The following applies: 24 hours.
The test system of series [8] is hemozoin production in Dd2 P. falciparum. In words: Hemozoin inhibition in cell culture. It counts as cell-based.
Series [9] concerns P. berghei. Nature of the series: Mouse efficacy against P. berghei. The following applies: for Mouse survival (days): 1 × 30 mg/kg.
Series [10] is described as follows: Signs of toxicity when administered to mice. It counts as in vivo. The note with it: administered to mice in the P. berghei experiments.
A short description of series [11]: Heme-drug binding by optical titration. The note with it: apparent; 2:1 heme to drug stoichiometry; 5 µM heme, phosphate buffer pH 5.7.
The mark [12] stands for this setting: [concentration in DV / concentration in medium].

In the case of `CCN(CC)CCCC(C)Nc1ccnc2cc(Cl)ccc12` (stereo not shown) [CQ, chloroquine, reference compound], the IC50 in [1] came out at 6.9 nM; in series [2], 102 nM. The “Uptake” value was determined as 7e-09 mol in series [3] and 5e-09 mol in [4].
For `CN(CCCNc1ccnc2cc(Cl)ccc12)CCCN1c2ccccc2CCc2ccccc21` [Compound 1], the IC50 stood at 700 nM in [5] and 9000 nM in series [6]. Besides, the values for the Accumulation ratio in series [3] (setting [12]) and in series [4] (setting [12]) were 32,000 and 38,000, respectively. Also, the entries for the “Uptake” value in series [3] and in [4] were 1.6e-08 mol and 1.8e-08 mol, respectively. For the same compound, the “increase of DV concentration over initial medium concentration” value in series [3] (initial medium concentration ∼ 5 µM) is listed as 13,000 fold. Besides, the “hemozoin formation by microscopy” value is “some hemozoin present” in [7] (100 nM drug) and “also the case” in [8] (100 nM drug, 24 hours (not shown)). For the same compound, the “Mouse survival (days)” value in [9] (oral) is given as “Mice euthanized day 3”.
As for `Clc1ccc2c(NCCN3CCN(C(c4ccccc4)c4ccccc4)CC3)ccnc2c1` [Compound 4, N-(2-(4-Benzhydrylpiperazin-1-yl)ethyl)-7-chloroquinolin-4-amine], the IC50 in series [5] is 1900 nM; in [6] it was 2500 nM. The “Mouse survival (days)” value in [9] (subcutaneous) was “Mice euthanized day 3”. Further, the “increase in survival days compared to control animals” value in [9] (4 × 30 mg/kg, oral) is ~10 days.
Take `Clc1ccc2c(NCCCN3CCN(C(c4ccccc4)c4ccccc4)CC3)ccnc2c1` [Compound 5, N-(3-(4-Benzhydrylpiperazin-1-yl)propyl)-7-chloroquinolin-4-amine]: the IC50 worked out at 1100 nM in [5] and 3500 nM in series [6].
`Clc1ccc2c(NCCCN3CCCN(C(c4ccccc4)c4ccccc4)CC3)ccnc2c1` [Compound 6, N-(3-(4-Benzhydryl-1,4-diazepan-1-yl)propyl)-7-chloroquinolin-4-amine]: the IC50 in [5] amounted to 700 nM.
In the case of `Clc1ccc(C(c2ccccc2)N2CCN(CCNc3ccnc4cc(Cl)ccc34)CC2)cc1` (stereo not shown) [Compound 7, 7-Chloro-N-(2-(4-((4-chlorophenyl)(phenyl)methyl)piperazin-1-yl)ethyl)quinolin-4-amine], in series [5], the IC50 was found to be 1400 nM.
In series [5], `Clc1ccc(C(c2ccccc2)N2CCN(CCCNc3ccnc4cc(Cl)ccc34)CC2)cc1` (stereo not shown) [Compound 8, 7-Chloro-N-(3-(4-((4-chlorophenyl)(phenyl)methyl)piperazin-1-yl)propyl)quinolin-4-amine] displayed an IC50 of 800 nM.
Compound `Clc1ccc(C(c2ccccc2)N2CCCN(CCCNc3ccnc4cc(Cl)ccc34)CC2)cc1` (stereo not shown) [Compound 9, 7-Chloro-N-(3-(4-((4-chlorophenyl)(phenyl)methyl)-1,4-diazepan-1-yl)propyl)quinolin-4-amine] had an IC50 in series [5] of 900 nM.
In series [5], `Fc1ccc(C(c2ccc(F)cc2)N2CCN(CCCNc3ccnc4cc(Cl)ccc34)CC2)cc1` [Compound 10, N-(3-(4-(Bis(4-fluorophenyl)methyl)piperazin-1-yl)propyl)-7-chloroquinolin-4-amine] had an IC50 of 4100 nM.
For `Clc1ccc2c(NCCN3CCCN(C4c5ccccc5-c5ccccc54)CC3)ccnc2c1` [Compound 11, N-(2-(4-(9H-Fluoren-9-yl)-1,4-diazepan-1-yl)ethyl)-7-chloroquinolin-4-amine], the IC50 in series [5] was 2500 nM.
On the same count and under the same terms, next, `Clc1ccc2c(NCCCN3CCCN(C4c5ccccc5-c5ccccc54)CC3)ccnc2c1` [Compound 12, N-(3-(4-(9H-Fluoren-9-yl)-1,4-diazepan-1-yl)propyl)-7-chloroquinolin-4-amine]: 2500 nM.
As for `CN(CCCN1c2ccccc2CCc2ccccc21)CCNc1ccnc2cc(Cl)ccc12` [Compound 13, N^1-(7-chloroquinolin-4-yl)-N^2-(3-(10,11-dihydro-5H-dibenzo[b,f]azepin-5-yl)propyl)-N^2-methylethane-1,2-diamine], the IC50 in series [5] was determined as 1400 nM; in series [6], 10000 nM.
In the case of `Clc1ccc2c(NCCCN3CCN(C(c4ccccc4)(c4ccccc4)c4ccccc4)CC3)ccnc2c1` [Compound 15, 7-Chloro-N-(3-(4-tritylpiperazin-1-yl)propyl)quinolin-4-amine], the “β-hematin inhibition (µM)” value in series [6] (IC50, 40 µM heme, acetate pH 4.8, Tween20, 24 hours at 37°C) is listed as “insoluble”. Moreover, the “Mouse survival (days)” value in series [9] (subcutaneous) is listed as “Mice euthanized day 3”. Also, in [9] (4 × 30 mg/kg, oral, parasite-free on day 30 post-infection), the mice cured is 1/3.
`Clc1ccc2c(NCCCN3CCN(C4C5CC6CC(C5)CC4C6)CC3)ccnc2c1` (stereo not shown) [Compound 17, N-(3-(4-(Adamant-2-yl)piperazin-1-yl)propyl)-7-chloroquinolin-4-amine]: the IC50 in series [6] stood at 14000 nM.
As for `Clc1ccc2c(NCCN3CCC(NC(c4ccccn4)c4ccccn4)CC3)ccnc2c1` [Compound 21, 7-Chloro-N-(2-(4-(dipyridin-2-ylmethylamino)piperidin-1-yl)ethyl)quinolin-4-amine], the IC50 in series [6] is ~2000 nM and 2000 nM. Also, in [9] (second trial, 4 × 44 mg/kg, oral (equimolar to 30 mg/kg CQ)), the mice cured was 3 out of 3 and 3/3.
With `Clc1ccc2c(NCCCN3CCC(NC(c4ccccn4)c4ccccn4)CC3)ccnc2c1` [Compound 22, 7-Chloro-N-(3-(4-(dipyridin-2-ylmethylamino)piperidin-1-yl)propyl)quinolin-4-amine], the IC50 in [2] was 1.6 nM; in [6] it was 1600 nM. Further, the “hemozoin formation by microscopy” value is recorded as “appeared to preclude hemozoin formation” in [7] (10 nM drug) and “appeared to preclude hemozoin formation” in [8] (10 nM drug, 24 hours). Further, the “signs of toxicity in mice” value in series [10] is listed as “no obvious signs of toxicity”. Further, the mice cured entry in series [9] (4 × 30 mg/kg, oral, parasite-free on day 30 post-infection, 30 mg/kg) is “two of the three and 2/3”; in series [9] (second trial, 4 × 46 mg/kg, oral (equimolar to 30 mg/kg CQ)), 9 out of 10 and 9/10.
`OCCN1CCN(C(c2ccccc2)c2ccccc2)CC1` [Compound 26, 2-(4-Benzhydrylpiperazin-1-yl)ethanol]: the “Kd [µM (app)]” value in series [11] is recorded as “no activity”.
